Experiment [1] concerns peptide-pulsed T2 cells. Description: IFN-gamma ELISPOT assay of CTLs induced in vitro with peptide-pulsed DCs. It counts as cell-based, human. The note with it: CTLs from HLA-A*0201 positive donor, day 21, peptide-pulsed T2 versus no peptide control. An excerpt: Monocyte-derived dendritic cells (DCs) were used as antigen-presenting cells to induce cytotoxic T lymphocyte (CTL) responses against peptides presented on human leukocyte antigen (HLA). DCs were generated in vitro as described elsewhere (Nakahara S et al., Cancer Res 2003 Jul. 15, 63(14): 4112-8). Specifically, peripheral blood mononuclear cells isolated from a normal volunteer (HLA-A*0201 positive) by Ficoll-Plaque (Pharmacia) solution were separated by adherence to a plastic tissue culture dish (Becton Dickinson) so as to enrich them as the monocyte fraction. The monocyte-enriched population was cultured in the presence of 1000 U/ml of granulocyte-macrophage colony-stimulating factor (R&D System) and 1000 U/ml of interleukin (IL)-4 (R&D System) in AIM-V Medium (Invitrogen) containing 2% heat-inactivated autologous serum (AS). After 7 days of culture, the cytokine-induced DCs were pulsed with 20 micro-g/ml of each of the synthesized peptides in the presence of 3 micro-g/ml of beta 2-microglobulin for 3 hr at 37 degrees C. in AIM-V Medium. The generated cells appeared to express DC-associated molecules, such as CD80, CD83, CD86 and HLA class II, on their cell surfaces (data not shown). These peptide-pulsed DCs were then inactivated by X-irradiated (20 Gy) and mixed at a 1:20 ratio with autologous CD8+ T cells, obtained by positive selection with CD8 Positive Isolation Kit (Dynal). These cultures were set up in 48-well plates (Corning); each well contained 1.5×10^4 peptide-pulsed DCs, 3×10^5 CD8+ T cells and 10 ng/ml of IL-7 (R&D System) in 0.5 ml of AIM-V/2% AS medium. Three days later, these cultures were supplemented with IL-2 (CHIRON) to a final concentration of 20 IU/ml. On day 7 and 14, the T cells were further stimulated with the autologous peptide-pulsed DCs. The DCs were prepared each time by the same way described above. CTL was tested against peptide-pulsed T2 cells after the 3rd round of peptide stimulation on day 21 (Tanaka H et al., Br J Cancer Jan. 5, 2001, 84(1): 94-9; Umano Y et al., Br J Cancer Apr. 20, 2001, 84(8): 1052-7; Uchida N et al., Clin Cancer Res Dec. 15, 2004, 10(24): 8577-86; Suda T et al., Cancer Sci May 2006, 97(5): 411-9; Watanabe T et al., Cancer Sci August 2005, 96(8): 498-506).
(§1) Specifically, peptide-pulsed T2 (1×10^4/well) was prepared as stimulator cells. Cultured cells in 48 wells were used as responder cells. IFN-gamma ELISPOT assay and IFN-gamma ELISA assay were performed under manufacture procedure.

Experiment [2] deals with peptide-pulsed T2 cells. Description: IFN-gamma ELISA assay of expanded CTL lines. The note with it: target cells pulsed with peptide versus without peptide pulse. It counts as cell-based, human. On the procedure: CTLs were expanded in culture using the method similar to the one described by Riddell et al. (Walter E A et al., N Engl J Med Oct. 19, 1995, 333(16): 1038-44; Riddell S R et al., Nat Med February 1996, 2(2): 216-23). A total of 5×10^4 CTLs were suspended in 25 ml of AIM-V/5% AS medium with 2 kinds of human B-lymphoblastoid cell lines, inactivated by Mitomycin C, in the presence of 40 ng/ml of anti-CD3 monoclonal antibody (Pharmingen). One day after initiating the cultures, 120 IU/ml of IL-2 were added to the cultures. The cultures were fed with fresh AIM-V/5% AS medium containing 30 IU/ml of IL-2 on days 5, 8 and 11 (Tanaka H et al., Br J Cancer Jan. 5, 2001, 84(1): 94-9; Umano Y et al., Br J Cancer Apr. 20, 2001, 84(8): 1052-7; Uchida N et al., Clin Cancer Res Dec. 15, 2004, 10(24): 8577-86; Suda T et al., Cancer Sci May 2006, 97(5): 411-9; Watanabe T et al., Cancer Sci August 2005, 96(8): 498-506).
as §1
On the technique in general: An ELISA detects its analyte on a solid surface through an enzyme-linked reagent.

The test system of experiment [3] is peptide-pulsed T2 cells. Description: IFN-gamma ELISA assay of CTL clones established by limiting dilution. The note with it: target cells pulsed with peptide versus without peptide pulse. Format: cell-based, human. On the procedure: The dilutions were made to have 0.3, 1, and 3 CTLs/well in 96 round-bottomed micro titer plate (Nalge Nunc International). CTLs were cultured with 1×10^4 cells/well of 2 kinds of human B-lymphoblastoid cell lines, 30 ng/ml of anti-CD3 antibody, and 125 U/ml of IL-2 in a total of […] of AIM-V Medium containing 5% AS. 50 micro-l/well of IL-2 were added to the medium 10 days later so to reach a final concentration of 125 U/ml IL-2. CTL activity was tested on the 14th day, and CTL clones were expanded using the same method as described above (Uchida N et al., Clin Cancer Res Dec. 15, 2004, 10(24): 8577-86; Suda T et al., Cancer Sci May 2006, 97(5): 411-9; Watanabe T et al., Cancer Sci August 2005, 96(8): 498-506).
as §1

Experiment [4] concerns COS7 cells transfected with C18orf54 and HLA-A*0201. The experiment in a line: Specific CTL activity against target cells expressing C18orf54 and HLA-A*0201. It counts as cell-based, African green monkey. As to conditions: CTL clone. From the text: The cDNA encoding an open reading frame of target genes or HLA-A*0201 was amplified by PCR. The PCR-amplified product was cloned into the expression vector. The plasmids were transfected into COS7, which is the target genes and HLA-A*0201-null cell line, using lipofectamine 2000 (Invitrogen) according to the manufacturer's recommended procedures. After 2 days from transfection, the transfected cells were harvested with versene (Invitrogen) and used as the target cells (5×10^4 cells/well) for CTL activity assay.
The established CTL lines and clones raised against each peptide were examined for the ability to recognize target cells that express C18orf54 and HLA-A*0201 molecule. […] COS7 cells transfected with either full length of C18orf54 or HLA-A*0201 were prepared as the controls.

Entries after “also recorded” stand apart in the source; their conditions may differ.

For the sequence SIPDFKYPV [SEQ ID NO: 4], the “Peptide specific CTL activity: IFN-gamma production (ELISPOT)” value (“Peptide specific CTL activity” below) in the experiment with peptide-pulsed T2 cells [1] is given as “potent IFN-gamma production”. The “IFN-gamma production of CTL lines (ELISA)” value in the experiment on peptide-pulsed T2 cells [2] is given as “potent IFN-gamma production”. Moreover, the “IFN-gamma production of CTL clones (ELISA)” value in the experiment on peptide-pulsed T2 cells [3] (listed as C18orf54-A02-9-255) is recorded as “potent IFN-gamma production”.

Consider WLTSQKSDL [SEQ ID NO: 20], for which the “Peptide specific CTL activity” value in the experiment with peptide-pulsed T2 cells [1] is on record as “potent IFN-gamma production”.

As for VTFKSPVPV [SEQ ID NO: 9], in the experiment on peptide-pulsed T2 cells [1], the “Peptide specific CTL activity” value is “potent IFN-gamma production”.

TSIPDFKYPV [SEQ ID NO: 32]: the “Peptide specific CTL activity” value with peptide-pulsed T2 cells [1] is “potent IFN-gamma production”.

Take SLQKALHHL [SEQ ID NO: 5]: the “Peptide specific CTL activity” value with peptide-pulsed T2 cells [1] is reported as “potent IFN-gamma production”. In the experiment with peptide-pulsed T2 cells [2], the “IFN-gamma production of CTL lines (ELISA)” value is on record as “potent IFN-gamma production”. In addition, the “IFN-gamma production of CTL clones (ELISA)” value in the experiment on peptide-pulsed T2 cells [3] (listed as C18orf54-A02-9-507) is “potent IFN-gamma production”. Further, the “Specific CTL activity against COS7 cells expressing both C18orf54 and HLA-A*0201” value in experiment [4] (COS7 transfected with both full length C18orf54 and HLA-A*0201, listed as C18orf54-A02-9-507) was “potent CTL activity; also recorded: specific CTL activity”. Besides, the “Specific CTL activity against control COS7 cells” value in experiment [4] (COS7 transfected with either C18orf54 or HLA-A*0201 alone) is “no significant specific CTL activity”.

As for QLKESMIPI [SEQ ID NO: 10], in the experiment with peptide-pulsed T2 cells [1], the “Peptide specific CTL activity” value is listed as “potent IFN-gamma production”.

On to QMLFNLQAV [SEQ ID NO: 2], for which the “Peptide specific CTL activity” value in the experiment with peptide-pulsed T2 cells [1] is “potent IFN-gamma production”. Further, the “IFN-gamma production of CTL lines (ELISA)” value with peptide-pulsed T2 cells [2] was “potent IFN-gamma production”.

As to KLYRSASQA [SEQ ID NO: 14], the “Peptide specific CTL activity” value with peptide-pulsed T2 cells [1] is on record as “potent IFN-gamma production”.

Take SLSDDKELV [SEQ ID NO: 3]: the “Peptide specific CTL activity” value with peptide-pulsed T2 cells [1] is on record as “potent IFN-gamma production”.

In the case of SMIPITRSL [SEQ ID NO: 1], the “Peptide specific CTL activity” value in the experiment on peptide-pulsed T2 cells [1] (listed as C18orf54-A02-9-500) is “not observed”.

Values taken from patent US20130287805A1, “C18ORF54 PEPTIDES AND VACCINES INCLUDING THE SAME” (priority 2010, published 2013).
